According to article PMC9376891 (Nature Communications, 2022):

Target: Rae1_31-368-Nup98_157-213 heterodimer (Rae1-Nup98 complex) (Homo sapiens, UniProt P52948+P78406)
Assay: biochemical
Assay type: binding

Chain of Rae1_31-368-Nup98_157-213 heterodimer (Rae1-Nup98 complex) (P78406 31-368 limits assumed): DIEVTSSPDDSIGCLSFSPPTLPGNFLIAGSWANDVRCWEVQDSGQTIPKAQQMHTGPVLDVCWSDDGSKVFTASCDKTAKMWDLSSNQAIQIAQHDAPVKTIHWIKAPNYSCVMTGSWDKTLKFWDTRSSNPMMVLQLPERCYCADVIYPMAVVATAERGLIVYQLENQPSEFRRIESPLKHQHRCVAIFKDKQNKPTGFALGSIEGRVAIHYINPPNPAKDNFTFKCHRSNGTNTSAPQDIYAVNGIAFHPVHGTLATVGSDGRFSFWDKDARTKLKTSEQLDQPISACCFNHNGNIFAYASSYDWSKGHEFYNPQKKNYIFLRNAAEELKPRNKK
Chain of Rae1_31-368-Nup98_157-213 heterodimer (Rae1-Nup98 complex) (P52948 157-213 partner limits assumed): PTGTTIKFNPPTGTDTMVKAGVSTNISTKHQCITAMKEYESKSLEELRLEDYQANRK

Structure (SMILES): CC[C@H](C)[C@H](NC(=O)[C@H](CCC(=O)O)NC(=O)[C@H](CCSC)NC(=O)[C@@H]1CCCN1C(=O)[C@H](CCC(N)=O)NC(=O)[C@H](CCC(=O)O)NC(=O)[C@H](CCC(=O)O)NC(=O)[C@H](CC(=O)O)NC(=O)[C@H](CC(C)C)NC(=O)[C@H](CCC(N)=O)NC(=O)[C@H](CO)NC(=O)[C@@H](N)Cc1ccc(O)cc1)C(=O)N[C@@H](CC(=O)O)C(=O)N[C@@H](Cc1ccc(O)cc1)C(=O)N1CCC[C@H]1C(=O)O [SARS-CoV-2 ORF6 C3 + YP]
- Kd: 200 nM
